This assay concerns the target T1, human NK3 (Homo sapiens, UniProt P29371).
T1 sequence (P29371 1-465): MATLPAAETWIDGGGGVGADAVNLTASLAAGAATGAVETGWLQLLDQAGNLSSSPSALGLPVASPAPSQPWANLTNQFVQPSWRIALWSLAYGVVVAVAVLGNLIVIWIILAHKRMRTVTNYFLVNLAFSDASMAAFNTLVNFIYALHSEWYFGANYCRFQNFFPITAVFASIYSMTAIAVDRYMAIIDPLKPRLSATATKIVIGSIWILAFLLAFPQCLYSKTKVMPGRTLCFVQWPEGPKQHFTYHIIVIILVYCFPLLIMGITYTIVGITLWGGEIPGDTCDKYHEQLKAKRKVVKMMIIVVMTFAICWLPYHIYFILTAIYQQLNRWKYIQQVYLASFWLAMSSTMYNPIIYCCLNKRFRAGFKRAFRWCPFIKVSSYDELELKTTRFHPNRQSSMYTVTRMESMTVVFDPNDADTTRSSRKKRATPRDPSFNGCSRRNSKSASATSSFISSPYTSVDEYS
The experiment in a line: FLIPR calcium assay in antagonist mode (NKB EC70 challenge). The assay is classed as cell-based. The following applies: stable cell line expressing human recombinant NK3; antagonist mode vs EC70 of NKB agonist. How it is done: Stable Cell Lines: A human recombinant NK3 Tachykinin Receptor stable cell line was purchased from GenScript (Genscript, Cat. #M00201; GenBank Accession Number NM 001059). The cell line was cultured according to manufacturer instructions, using 100 μg/mL Hygromycin B (Invitrogen, Cat. #D2650) for selective pressure. Cells were then collected using 0.05% Trypsin-EDTA (GIBCO, Cat. #25300) and frozen in a freezing media containing 90% FBS (Gibco, Cat. #10099-141) and 10% DMSO (Sigma, Cat. #D2650) at a density of 30×10^6 cells/mL. This bank of assay-ready frozen cells was later used in FLIPR assays to evaluate the potency and efficacy of NK3 antagonist test compounds.
FLIPR Calcium Assay: The FLIPR assay, used to measure changes in intracellular calcium levels, was performed in a 384-well plate format using the FLIPR Calcium 6 assay kit (Molecular Devices, Cat. #R8190). Assay-ready frozen cells expressing human NK3 (Genscript, Cat. #M00201) were thawed, washed, trypsinized, counted using a ViCell, and plated in cell growth media without Hygromycin at a density of […] (40 μL/well).
Calculation of NKB EC70: An EC70 concentration of NKB needed to be determined for competition against test antagonists prior to the compound screen. NKB agonist (Phoenix Pharmaceuticals, Cat. #046-26) was diluted in DMSO at 1800 nM (6-fold the final concentration) and serially diluted to generate a 13-point dose response curve (3-fold serial dilution) using an ECHO. 20 μL of 1× stimulation buffer was added using the BRAVO. 10 μL of DMSO was added while on the FLIPR (described as the first addition), then the RFU signal was measured for 10 minutes. The NKB titration was added to the plate, then the RFU signal was measured for 10 minutes (described as the second addition) on the FLIPR. The EC70 concentration was determined by using a four-parameter fit on GraphPad Prism prior to performing the compound screen.
FLIPR Screen in Antagonist Mode: Test compounds were prepared at 60 μM (6-fold the final concentration) and spotted in 370 nL using the Janus and ECHO. 20 μL of assay buffer was added using the BRAVO. Calcium-sensitive dye was reconstituted in loading buffer (Molecular Devices, Cat. #R8190). Media was removed from the cell plate using a Bluecat Cell Washer, and 40 μL of dye was added to the cell plate using the Apricot. The plate was incubated for 2 hours at 37° C., 5% CO2, then transferred to the FLIPR instrument. 10 μL of compound was added on the FLIPR (described as the first addition), then the RFU signal was measured for 10 minutes. EC70 of NKB agonist was added to the entire plate (described as the second addition), and the RFU signal was measured for 10 minutes on the FLIPR. RFU (relative fluorescence units) signals for first baseline, first peak, second baseline, and second peak were measured using the FLIPR. RFU signal (second peak minus second baseline) for positive (Max, at 10 μM antagonist) and negative (Min, at 0 μM antagonist) controls were used to normalize data and generate values for % Activity. IC50 and efficacy values were determined using a standard curve fitting equation on Dotmatics.

Results on 40 compounds are retold here after patent publication US12281114B2, “NK3 modulators and uses thereof” (Kallyope, Inc., priority 2023, dated 2025).

Molecules are shown by their SMILES.

Turning to `CO[C@H]1C[C@@H](NC(=O)c2ccn3c(F)c(-c4c(F)cc(F)cc4-c4c[nH]nc4Cl)nc3c2)C1` [Compound 833], the IC50 (as a rule, the point on the concentration scale where inhibition reaches its midpoint) worked out at 2.68 nM.

For `Cn1cc(-c2ccccc2-c2nc3cc(C(=O)NC45CCC(O)(CC4)C5)ccn3c2Cl)c(F)n1` [Compound 855], the IC50 came to 1.71 nM.

For the compound `Cc1nn(C)cc1-c1ccccc1-c1nc2cc(C(=O)NCCc3n[nH]c(=O)[nH]3)ccn2c1Cl` [Compound 748], the IC50 stood at 5.58 nM.

As for `Cc1nn(C)cc1-c1ccccc1-c1nc2cc(C(=O)NCCS(N)(=O)=O)ccn2c1Cl` [Compound 614], the IC50 was found to be 2.65 nM.

Turning to `Cn1cc(-c2ccccc2-c2nc3cc(C(=O)N4C[C@@H]5C[C@H]4C(=O)N5)ccn3c2Cl)c(C#N)n1` [Compound 795], the IC50 turned out to be 12.5 nM.

For `Cc1nn(C)cc1-c1ccccc1-c1nc2cc(C(=O)N[C@H]3C[C@](C)(O)C3)ccn2c1Cl` [Compound 447], the IC50 came out at 3.19 nM.

Consider `Cn1cc(-c2cccc(F)c2-c2nc3cc(C(=O)N[C@H]4CC5(C[C@@H](O)C5)C4)ccn3c2Cl)c(F)n1` (stereo partly drawn) [Compound 921, trans 3-chloro-2-(2-fluoro-6-(3-fluoro-1-methyl-1H-pyrazol-4-yl)phenyl)-N-(6-hydroxyspiro[3.3]heptan-2-yl)imidazo[1,2-a]pyridine-7-carboxamide], for which the IC50 was found to be 0.71 nM.

Regarding `Cc1nn(C)cc1-c1c(F)c(F)cc(F)c1-c1nc2cc(C(=O)N3C[C@@H]4C[C@H]3C(=O)N4)ccn2c1Cl` [Compound 817], the half-maximal inhibitory concentration (IC50) amounted to 1.92 nM.

Take `Cn1cc(-c2ccc(F)c(F)c2-c2nc3cc(C(=O)NC45COC(C)(C4)C5)ccn3c2C#N)c(F)n1` [Compound 932, 3-cyano-2-(2,3-difluoro-6-(3-fluoro-1-methyl-1H-pyrazol-4-yl)phenyl)-N-(1-methyl-2-oxabicyclo[2.1.1]hexan-4-yl)imidazo[1,2-a]pyridine-7-carboxamide]: the IC50 stood at 6.09 nM.

Turning to `Cc1nn(C)cc1-c1ccccc1-c1nc2cc(C(=O)NC[C@H]3C[C@@H](O)C3(C)C)ccn2c1Cl` [Compound 645], the IC50 worked out at 2.02 nM.

`Cc1nn(C)cc1-c1ccccc1-c1nc2cc(C(=O)NCc3cnc(N)nc3)ccn2c1Cl` [Compound 761]: the IC50 was found to be 1.92 nM.

Regarding `Cc1nn(C)cc1-c1ccccc1-c1nc2cc(C(=O)NCCC3(O)COC3)ccn2c1Cl` [Compound 651], the IC50 was determined as 9.28 nM.

Regarding `Cn1cc(-c2cccc(F)c2-c2nc3cc(C(=O)N[C@H]4CC5(C4)C[C@](C)(O)C5)ccn3c2Cl)c(F)n1` (stereo partly drawn) [Compound 929, trans 3-chloro-2-(2-fluoro-6-(3-fluoro-1-methyl-1H-pyrazol-4-yl)phenyl)-N-(6-hydroxy-6-methylspiro[3.3]heptan-2-yl)imidazo[1,2-a]pyridine-7-carboxamide], the IC50 amounted to 2.07 nM.

`Cc1nn(C)cc1-c1ccccc1-c1nc2cc(C(=O)NC34COC(CO)(C3)C4)ccn2c1Cl` [Compound 615]: the IC50 was determined as 2.5 nM.

Regarding `Cc1nn(C)cc1-c1cccc(F)c1-c1nc2cc(C(=O)NC3CCNCC3)ccn2c1Cl` [Compound 705], the IC50 came out at 4.97 nM.

Take `Cc1nn(C)cc1-c1ccccc1-c1nc2cc(C(=O)N[C@@H]3CO[C@H]4[C@@H]3OC[C@H]4O)ccn2c1C#N` [Compound 431]: the IC50 was 4.03 nM.

On to `Cc1nn(C)cc1-c1ccccc1-c1nc2cc(C(=O)NC[C@H]3CNCCO3)ccn2c1Cl` [Compound 461], for which the IC50 was found to be 3.41 nM.

As for `Cc1nn(C)cc1-c1c(F)cncc1-c1nc2cc(C(=O)N[C@H]3C[C@](C)(O)C3)ccn2c1Cl` [Compound 824], the IC50 stood at 5.89 nM.

For `Cc1nn(C)cc1-c1ccccc1-c1nc2cc(C(=O)N3C[C@@H]4[C@@H](O)[C@@H]4C3)ccn2c1Cl` [Compound 647], the IC50 was 9.16 nM.

With `Cc1nn(C)cc1-c1ccccc1-c1nc2cc(C(=O)N3CCC4(CC(CO)C4)C3)ccn2c1Cl` (stereo not shown) [Compound 792], the IC50 stood at 2.09 nM.

On to `Cc1nn(C)cc1-c1ccccc1-c1nc2cc(C(=O)NC[C@@H]3CNCCO3)ccn2c1Cl` [Compound 455], for which the IC50 was 1.74 nM.

As for `Cc1nn(C)cc1-c1cccc(F)c1-c1nc2cc(C(=O)N3C[C@@H]4C[C@H]3C(=O)N4)ccn2c1C#N` [Compound 468], the IC50 is 4.27 nM.

For `Cn1cc(-c2cccc(F)c2-c2nc3cc(C(=O)N[C@H]4C[C@@](O)(CO)C4)ccn3c2Cl)c(F)n1` [Compound 841], the half-inhibitory concentration (IC50) turned out to be 1.25 nM.

For the compound `Cc1nn(C)cc1-c1cncc(F)c1-c1nc2cc(C(=O)N[C@H]3C[C@@](C)(O)C3)ccn2c1Cl` [Compound 823], the IC50 amounted to 3.25 nM.

As to `Cc1nc(N)ccc1CNC(=O)c1ccn2c(Cl)c(-c3ccccc3-c3cn(C)nc3C)nc2c1` [Compound 759], the IC50 was 2.78 nM.

`Cc1nn(C)cc1-c1ccccc1-c1nc2cc(C(=O)N[C@@H]3CO[C@H]4[C@@H]3OC[C@H]4N)ccn2c1Cl` [Compound 794]: the IC50 came out at 8.45 nM.

Turning to `Cc1nn(C)cc1-c1ccccc1-c1nc2cc(C(=O)NC[C@]34C[C@](O)(C3)C4)ccn2c1Cl` [Compound 633], the IC50 was found to be 1.53 nM.

Take `Cc1nn(C)cc1-c1ccccc1-c1nc2cc(C(=O)NCCC(C)(C)O)ccn2c1Cl` [Compound 459]: the IC50 is 1.86 nM.

Regarding `Cc1nn(C)cc1-c1ccccc1-c1nc2cc(C(=O)N3CC[C@@H](N4CCNCC4)C3)ccn2c1C` (single isomer, unassigned) [Compound 480], the IC50 came out at 20.7 nM.

For `Cn1cc(-c2cccc(F)c2-c2nc3cc(C(=O)N[C@H]4CC[C@](C)(O)CC4)ccn3c2Cl)c(F)n1` [Compound 917], the concentration for half-maximal inhibition (IC50) is 0.67 nM.

As to `C[C@]1(O)C[C@H](NC(=O)c2ccn3c(Cl)c(-c4ccccc4-c4cn(C5CC5)nc4Cl)nc3c2)C1` [Compound 826], the IC50 stood at 1.4 nM.

On to `Cn1cc(-c2cccc(F)c2-c2nc3cc(C(=O)NC4CC5(CC(O)C5)C4)ccn3c2Cl)c(F)n1` (stereo not shown) [Compound 853], for which the IC50 was 0.97 nM.

With `CC(C)(O)C12CC(NC(=O)c3ccn4c(F)c(-c5c(F)cccc5-c5c[nH]nc5F)nc4c3)(C1)C2` [Compound 836], the IC50 came to 1.1 nM.

Take `C[C@]1(O)C[C@H](NC(=O)c2ccn3c(Cl)c(-c4ccccc4-c4cnn(C(F)F)c4Cl)nc3c2)C1` [Compound 818]: the IC50 turned out to be 0.99 nM.

With `COC12CC(NC(=O)c3ccn4c(Cl)c(-c5c(F)cc(F)cc5-c5c[nH]nc5F)nc4c3)(C1)C2` [Compound 848], the IC50 came to 2 nM.

`Cc1nn(C)cc1-c1cccc(F)c1-c1nc2cc(C(=O)N[C@H]3CO[C@H]4[C@@H]3OC[C@H]4O)ccn2c1Cl` [Compound 780]: the IC50 came out at 3.34 nM.

As for `Cn1cc(-c2ccc(F)c(F)c2-c2nc3cc(C(=O)N[C@H]4C[C@](C)(O)C4)ccn3c2Cl)c(F)n1` [Compound 927], the IC50 was 2.66 nM.

As for `Cc1nn(C)cc1-c1ccccc1-c1nc2cc(C(=O)N[C@@H]3CO[C@H]4[C@@H]3OC[C@@H]4O)ccn2c1Cl` [Compound 473], the IC50 is 2.26 nM.

As for `Cn1cc(-c2cccc(F)c2-c2nc3cc(C(=O)N[C@H]4CC[C@](C)(O)CC4)ccn3c2C#N)c(F)n1` [Compound 930, 3-cyano-2-(2-fluoro-6-(3-fluoro-1-methyl-1H-pyrazol-4-yl)phenyl)-N-((1r,4r)-4-hydroxy-4-methylcyclohexyl)imidazo[1,2-a]pyridine-7-carboxamide], the IC50 was found to be 3 nM.

Take `Cc1nn(C)cc1-c1ccccc1-c1nc2cc(C(=O)N[C@H]3C[C@@H](CO)C3)ccn2c1Cl` [Compound 643]: the IC50 was 1.08 nM.
